Assay results taken from patent US20260285850A1, “SUBSTITUTED OXAZOLIDINONES AND IMIDAZOLINONES AS HERBICIDES” (FMC CORPORATION, priority 2023, published 2026).

Columns and labels:
Type in all cases: in vivo
[1] = tested on: corn (Zea mays); assay: Test A postemergence application, visual injury rating 0-100; details: Postemergence, 10 days, 0 is no effect, 100 is complete control
Outline: (§1)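 Rating: visual, day 10, untreated plants as reference, 0 no effect to 100 full control. Plants were in loam-sand and were treated either preemergence via directed soil spray or postemergence at the one- to two-leaf stage.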

[2] = tested on: galium (catchweed bedstraw, Galium aparine); assay: as above; details: Postemergence, 10 days, 0 is no effect, 100 is complete control
Outline: as §1

[3] = tested on: blackgrass (Alopecurus myosuroides); assay: as above; details: Postemergence, 10 days, 0 is no effect, 100 is complete control
Outline: as §1

[4] = tested on: barnyardgrass (Echinochloa crus-galli); assay: as above; details: Postemergence, 10 days, 0 is no effect, 100 is complete control
Outline: as §1

[5] = tested on: soybean (Glycine max); assay: as above; details: Postemergence, 10 days, 0 is no effect, 100 is complete control
Outline: as §1

[6] = tested on: horseweed (Erigeron canadensis); assay: as above; details: Postemergence, 10 days, 0 is no effect, 100 is complete control
Outline: as §1

[7] = tested on: wheat (Triticum aestivum); assay: as above; details: Postemergence, 10 days, 0 is no effect, 100 is complete control
Outline: as §1

[8] = tested on: oat, wild (wild oat, Avena fatua); assay: as above; details: Postemergence, 10 days, 0 is no effect, 100 is complete control
Outline: as §1

[9] = tested on: green foxtail (Setaria viridis); assay: as above; details: Postemergence, 10 days, 0 is no effect, 100 is complete control
Outline: as §1

[10] = tested on: kochia (Bassia scoparia); assay: as above; details: Postemergence, 10 days, 0 is no effect, 100 is complete control
Outline: as §1

[11] = tested on: ragweed (common ragweed, Ambrosia artemisiifolia); assay: as above; details: Postemergence, 10 days, 0 is no effect, 100 is complete control
Outline: as §1

[12] = tested on: palmer (palmer amaranth, palmer pigweed, Amaranthus palmeri); assay: as above; details: Postemergence, 10 days, 0 is no effect, 100 is complete control
Outline: as §1

[13] = tested on: ryegrass, Italian (italian ryegrass, Lolium multiflorum); assay: as above; details: Postemergence, 10 days, 0 is no effect, 100 is complete control
Outline: as §1

[14] = tested on: ducksalad (Heteranthera limosa); assay: Test B flooded paddy test, visual plant response rating 0-100; details: 250 g ai/ha, Flood, applied to paddy water, evaluated after 13 days
Outline: (§2)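 Visual scores versus untreated controls were recorded 13 days after treatment of greenhouse-held plants. At the 2-leaf stage, pots were flooded 3 cm above the soil surface and compounds added straight to the water.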

[15] = tested on: rice (Oryza sativa); assay: as above; details: 250 g ai/ha, Flood, applied to paddy water, evaluated after 13 days
Outline: as §2

[16] = tested on: sedge, umbrella (small-flower umbrella sedge, Cyperus difformis); assay: as above; details: 250 g ai/ha, Flood, applied to paddy water, evaluated after 13 days
Outline: as §2

[17] = tested on: barnyardgrass (Echinochloa crusgalli); assay: as above; details: 250 g ai/ha, Flood, applied to paddy water, evaluated after 13 days
Outline: as §2

[18] = tested on: corn (Zea mays); assay: Test A preemergence soil spray, visual injury rating 0-100; details: 10 days, 0 = no effect, 100 = complete control
Outline: as §1

[19] = tested on: blackgrass (Alopecurus myosuroides); assay: as above; details: 10 days, 0 = no effect, 100 = complete control
Outline: as §1

[20] = tested on: barnyardgrass (Echinochloa crus-galli); assay: as above; details: 10 days, 0 = no effect, 100 = complete control
Outline: as §1

[21] = tested on: soybean (Glycine max); assay: as above; details: 10 days, 0 = no effect, 100 = complete control
Outline: as §1

[22] = tested on: wheat (Triticum aestivum); assay: as above; details: 10 days, 0 = no effect, 100 = complete control
Outline: as §1

[23] = tested on: oat, wild (wild oat, Avena fatua); assay: as above; details: 10 days, 0 = no effect, 100 = complete control
Outline: as §1

[24] = tested on: green foxtail (Setaria viridis); assay: as above; details: 10 days, 0 = no effect, 100 = complete control
Outline: as §1

[25] = tested on: kochia (Bassia scoparia); assay: as above; details: 10 days, 0 = no effect, 100 = complete control
Outline: as §1

[26] = tested on: ragweed (common ragweed, Ambrosia artemisiifolia); assay: as above; details: 10 days, 0 = no effect, 100 = complete control
Outline: as §1

[27] = tested on: palmer (palmer amaranth, palmer pigweed, Amaranthus palmeri); assay: as above; details: 10 days, 0 = no effect, 100 = complete control
Outline: as §1

[28] = tested on: ryegrass, Italian (italian ryegrass, Lolium multiflorum); assay: as above; details: 10 days, 0 = no effect, 100 = complete control
Outline: as §1

COC(=O)C1C=CC(NC(=O)C2(C)CN(c3cc(Cl)cc(Cl)c3)C(=O)O2)C1 (stereo not shown) [Compound 42]
70: Galium plant response rating (0 to 100 scale) ([2]; 125 g ai/ha) | Ragweed plant response rating (0 to 100 scale) ([11]; 125 g ai/ha) | Soybean plant response rating (0 to 100 scale) ([21]; 500 g ai/ha)
20: Ragweed plant response rating (0 to 100 scale) ([26]; 125 g ai/ha)
90: Soybean plant response rating (0 to 100 scale) ([5]; 125 g ai/ha) | Horseweed plant response rating (0 to 100 scale) ([6]; 500 g ai/ha) | Wheat plant response rating (0 to 100 scale) ([7]; 125 g ai/ha) | Wheat plant response rating (0 to 100 scale) ([7]; 500 g ai/ha) | Oat, Wild plant response rating (0 to 100 scale) ([8]; 125 g ai/ha) | Oat, Wild plant response rating (0 to 100 scale) ([8]; 500 g ai/ha) | Foxtail, Green plant response rating (0 to 100 scale) ([9]; 125 g ai/ha) | Foxtail, Green plant response rating (0 to 100 scale) ([9]; 500 g ai/ha) | Ryegrass, Italian plant response rating (0 to 100 scale) ([13]; 125 g ai/ha) | Ryegrass, Italian plant response rating (0 to 100 scale) ([13]; 500 g ai/ha) | Plant response rating, Ducksalad (0 to 100 scale, 0 is no effect and 100 is complete control) [14] | Corn plant response rating (0 to 100 scale) ([18]; 125 g ai/ha) | Corn plant response rating (0 to 100 scale) ([18]; 500 g ai/ha) | Blackgrass plant response rating (0 to 100 scale) ([19]; 125 g ai/ha) | Wheat plant response rating (0 to 100 scale) ([22]; 125 g ai/ha) | Wheat plant response rating (0 to 100 scale) ([22]; 500 g ai/ha) | Oat, Wild plant response rating (0 to 100 scale) ([23]; 125 g ai/ha) | Oat, Wild plant response rating (0 to 100 scale) ([23]; 500 g ai/ha) | Kochia plant response rating (0 to 100 scale) ([25]; 125 g ai/ha) | Kochia plant response rating (0 to 100 scale) ([25]; 500 g ai/ha) | Ryegrass, Italian plant response rating (0 to 100 scale) ([28]; 125 g ai/ha)
100: Corn plant response rating (0 to 100 scale) ([1]; 125 g ai/ha) | Corn plant response rating (0 to 100 scale) ([1]; 500 g ai/ha) | Blackgrass plant response rating (0 to 100 scale) ([3]; 125 g ai/ha) | Blackgrass plant response rating (0 to 100 scale) ([3]; 500 g ai/ha) | Barnyardgrass plant response rating (0 to 100 scale) ([4]; 125 g ai/ha) | Barnyardgrass plant response rating (0 to 100 scale) ([4]; 500 g ai/ha) | Amaranth, Palmer / Pigweed, Palmer plant response rating (0 to 100 scale) ([12]; 125 g ai/ha) | Amaranth, Palmer / Pigweed, Palmer plant response rating (0 to 100 scale) ([12]; 500 g ai/ha) | Blackgrass plant response rating (0 to 100 scale) ([19]; 500 g ai/ha) | Barnyardgrass plant response rating (0 to 100 scale) ([20]; 125 g ai/ha) | Barnyardgrass plant response rating (0 to 100 scale) ([20]; 500 g ai/ha) | Foxtail, Green plant response rating (0 to 100 scale) ([24]; 125 g ai/ha) | Foxtail, Green plant response rating (0 to 100 scale) ([24]; 500 g ai/ha) | Amaranth, Palmer plant response rating (0 to 100 scale) ([27]; 125 g ai/ha) | Amaranth, Palmer plant response rating (0 to 100 scale) ([27]; 500 g ai/ha) | Ryegrass, Italian plant response rating (0 to 100 scale) ([28]; 500 g ai/ha)
40: Soybean plant response rating (0 to 100 scale) ([21]; 125 g ai/ha)
80: Galium plant response rating (0 to 100 scale) ([2]; 500 g ai/ha) | Soybean plant response rating (0 to 100 scale) ([5]; 500 g ai/ha) | Horseweed plant response rating (0 to 100 scale) ([6]; 125 g ai/ha) | Kochia plant response rating (0 to 100 scale) ([10]; 125 g ai/ha) | Kochia plant response rating (0 to 100 scale) ([10]; 500 g ai/ha) | Ragweed plant response rating (0 to 100 scale) ([11]; 500 g ai/ha) | Ragweed plant response rating (0 to 100 scale) ([26]; 500 g ai/ha)
95: Plant response rating, Sedge, Umbrella (0 to 100 scale, 0 is no effect and 100 is complete control) [16] | Plant response rating, Barnyardgrass (0 to 100 scale, 0 is no effect and 100 is complete control) [17]
15: Plant response rating, Rice (0 to 100 scale, 0 is no effect and 100 is complete control) [15]
